Data on two compounds can be found in patent US8653049B2, “Normuramyl glycopeptide compounds” (priority 2008, dated 2014).

Molecules are shown by their SMILES. Entries after “also recorded” stand apart in the source; their conditions may differ.

The conditions of series [1]: rabbits, liposomal preparations s.c. 100 nmol/kg, 3 rabbits per group; passes if below 1.1° C. On the procedure:
The test was conducted in an authorised laboratory, ITEST plus s.r.o., Bilé Vchýnice 10, 533 13 Vápno u Prelouce, Czech Republic, according to guide-lines CL 2005.
Rabbits (New Zeeland albino, 4-6 kg, 3 animals per group) were used for testing.
Liposomal preparations of muramyl glycopeptide derivatives were administered s.c. (100 nmol/kg). Empty liposomes were used as negative control and the liposomal as well as the free form of muramyl dipeptide (MDP) (25 μg/kg, corresponding to 50.7 nmol/kg) served as positive control. Temperature was measured in 1, 2, 3, 4,6 and 24 hour intervals.
Empty liposomes were used as negative control; and liposomal as well as free muramyl dipeptide (MDP) (50.7 nmol/kg) served as positive control. B30-norAbu-MDP (MT01, structure on page 5) served as additional control. Temperature was measured in 1, 2, 3, 4, 6 and 24 h intervals. The preparation passed the test if the Sum of ΔTmax remained below 1.1° C. (3 rabbits per group)

Series [2] deals with r-hsp90 (Candida albicans hsp90) specific IgG antibodies. The series is described as follows: Proteoliposome vaccine against C. albicans hsp90: antibody (humoral) response, ELISA. The class given is in vivo, BALB/c mice. The settings on record: Experiment 12.2; liposomal compound (5%) + Ni-HSP90, boost day 14; FIG. 13. On the procedure:
(§1) Proteoliposomes were prepared by coupling recombinant hsp90 antigen (r-hsp90, 6×HISTag) via a metal chelating lipid to liposomes containing muramyl glycopeptide derivatives as adjuvant component. BALB/c […] mice 4 to 5 weeks old (female 20±2 g, 5 animal per group) were immunized by the intradermal route either with 20 μg of free or liposomal r-hsp90 (volume of 60 μl) either with or without L18-norAbu-MDP and boosted 21 days later by the same composition of experimental vaccine. FCA was used as positive control r-hsp90. Liposomal vaccine composition 20 μg of rHSP90 antigen, 5% metallochelating lipid, 5% particular MT analogue, 90% phospolipids.
Blood samples were collected from the tail vein into heparinised capillary PCV tubes. After centrifugation, the upper part of the tube, containing […] blood serum, was cut off, thrown into […] diluting solution and thoroughly shaken. Thus, a basic dilution of 1:33 was obtained. The pre-diluted sera were kept at −20° C. Blood samples were collected before the first immunization, 2 weeks thereafter and subsequently at weekly intervals up to the 4th week after the second immunisation. Specific IgG antibodies in blood serum samples were determined by the standard indirect ELISA procedure. The data obtained were processed statistically using the non-parametric Mann-Whitney U-test.
Proteoliposomes with muramyl glycopeptide derivatives were prepared as described above, but the boost was carried out already after 14 days. The liposomal vaccine composition was as for Experiment Set 1: 20 μg of rHSP90 antigen, 5% metallochelating lipid, 5% particular MT analogue, 90% phospolipids.
Controls: Aluminum hydroxide (AlOH) and Freund complete adjuvans (FCA) were used as positive controls. PBS with empty liposomes was used as negative control (control). Humoral response was tested at day 14 after vaccination (post priming) and at day 20 after vaccination (post booster). Antibody titres were wer assayed by ELISA.
(In general: In an ELISA, binding on a coated surface is turned into a signal by an enzyme label.)

Series [3] has as its system IFN-γ production in splenocytes stimulated by rHSP90. The series is described as follows: Proteoliposome vaccine against C. albicans hsp90: cellular response (IFN-γ in splenocytes stimulated by rHSP90). In kind it is in vivo, BALB/c mice. The settings on record: Experiment 12.3; liposomal compound (5%) + Ni-HSP90, day 20; FIG. 14. On the procedure:
as §1
Production of INF-γ was mesured by standard ELISPOT assay (R&D, USA). Immunised mice were sacrified 4 weeks after booster imunisation and splenocytes were isolated, and stimulated by r-hsp90 (50 μg/ml) and spots were counted.
Proteoliposomes with muramyl glycopeptide derivatives were prepared as described above. Experimental conditions were as for Experiment 12.2.
Cell mediated immune response against rHSP90 antigen formulated in liposomal experimental vaccine was tested at day 20 (6 days after booster). Mice were sacrificed, splenocytes were purified and production of IFN-γ in splenocytes stimulated by rHSP90 was assayed by flow cytometry.

For series [4], the system named is NK sensitive K562 cell line. Description: NK cell cytotoxicity of human PBMC, 51Cr-release against K562. Conditions: for dose response of NK cell activity: range 0.1 μM-100 μM, FIG. 28. The class given is cell-based. As to the method: Ex vivo effects of test compounds on NK cells were evaluated on human peripheral blood mononuclear cells (PBMC). The NK cell cytotoxicity of healthy donors in the presence or absence of test compounds was measured in standard 4 hrs ^51Cr-release assay against NK sensitive K562 cell line in effector (PBMC) to target (K562) ratio 16:1. Test compounds were added at a concentration of 10^−7 mol/ml.
Testing of compounds 23, 24, 32, 33, 40 and 41 for their capacity to induce cell-mediated cytotoxicity of human eripheral blood mononuclear cells (PBMCs) is shown in FIGS. 27 and 28. All donors were healthy. […] The cytotoxicity of untreated controls (30.5%) was renormalized to 100%.

Series [5] relates to myelin basic protein induced EAE. Description: Experimental allergic encephalomyelitis (EAE), Th1 adjuvant activity. In kind it is in vivo, guinea pigs. Conditions: guinea pigs sensitized with bovine MBP in IFA + compound; FIG. 31.
A short description of series [6]: Survival after lethal irradiation (10 Gy). The class given is in vivo, mice (strain ICR). Conditions: 200 nmol s.c. 24 h before 10 Gy; FIG. 37. As to the method: Preparations (200 nmol of active substance) were applied to mice (strain ICR, female, 3 months of age, 10 mice per group) by s.c. route 24 h before irradiation (radiation dose of 10 Gy from a ^60Co gamma-ray source at a dose rate of 0.285 Gy/min). PBS and empty liposome served as negative controls, free and liposomal muramyl dipeptide (MDP) served as positive controls.

The next series relates to Salmonella enteritidis. The series is described as follows: Stimulation of innate immunity against Salmonella Enteritidis. Conditions: for protective effect / survival rate in S. Enteritidis infection: 0 or 1 case of death by day 12; for Day 6 Intest.: clear/infected/dead / Day 6 Liver: clear/infected/dead / Day 6 Lungs: clear/infected/dead / Day 6 Spleen: clear/infected/dead / Day 12 Intest.: clear/infected/dead / Day 12 Liver: clear/infected/dead / Day 12 Lungs: clear/infected/dead / Day 12 Spleen: clear/infected/dead: liposomal, 20 nmol per dose p.o. 72 and 24 h before infection (LD50), 5 mice.

Series [7] relates to Friend leukemia virus (FLV). The series is described as follows: Friend leukemia virus infection: survival, TER-119+ cells, spleen.
The subject of series [8] is NK-sensitive YAC1 target cells. Description: NK cell-mediated cytotoxicity of spleen mononuclear cells, 51Cr-release against YAC1. Conditions: FLV-inoculated mice, day 16, 18 h incubation with YAC1; FIG. 26.
Series [9] concerns granulocyte-macrophage progenitor cells (GM-CFC). The series is described as follows: Colony stimulating activity (CSA) of serum on GM-CFC. The class given is in vivo, mouse. Conditions: liposomal compounds; FIG. 32. As to the method: Determination of Colony stimulating activity (CSA) and co-stimulating activity (CoSA) in serum: Blood was taken at intervals from 5 to 48 h after injection of the test compounds, and the ability of the sera from treated mice to stimulate in vitro growth of colonies from granulocyte-macrophage progenitor cells (GM-CFC) was determined. CoSA was determined as the ability of tested compounds, sera of treated mice, or conditioned medium from cultures of adherent stromal cells to enhance the number of GM-CFC colonies induced by a sub-optimal concentration of rmIL-3 in the above-described GM-CFC assay. The concentration of rmIL-3 was adjusted to a value which yielded one third of the maximum number of colonies on a dose-dependent curve.

Series [10] concerns GM-CFC progenitors in bone marrow. Description: GM-CFC recovery, test compounds after sub-lethal irradiation. The class given is in vivo, ICR/CD-1 mice. Conditions: s.c. 100 nmol 24 h after 6 Gy; FIG. 36. As to the method: Institite of Cancer Research (ICR/CD-1) mice (female, age of 3 months, 3-4 per group) were stimulated by s.c. administration of test compounds (volume of 200 μl, 100 nmol per dose) 24 h before sublethal γ-irradiation (6 Gy, ^60Co γray source Chisostat, Chirana Ltd., Czech Republic, at a dose of 0.285 Gy/min.). Mice were sacrified at day 13 and recovery of GM-CFC in femour was assayed by counting of colonies (CFC) formed after cultivation in medium. Non-irradiated mice were used as control for normal GM-CFC count in femour. PBS and empty liposomes were used as controls for spontaneous recovery. Liposomal MDP was used as reference standard.
The following parameters of hemopoiesis were evaluated: • a) Blood leukocyte counts and bone marrow cellularity. Blood leukocytes (samples of blood drawn from an incision of the tail vein) and nucleated cell elements of the femoral bone marrow (femoral diaphyses flushed with saline) were estimated by means of Coulter Counter (Model ZN, Coulter Electronics). • b) Colony-forming cells in spleen. Endogenous spleen colony-forming units (E-CFUs) were measured on day 9 post the whole-body irradiation with 6.5 Gy (5 mice per group) according to Till and McCulloch. • c) GM-CFC progenitors in bone marrow. Femoral bone marrow cells were obtained from mice by flushing the femour with sterile IMDM medium. Harvested cells were calculated and diluted to 1.5×10^5 cells/ml and plated in triplicate in a semisolid environment created by plasma clot (Iscovess modification of Dulbecco's medium, 20% of fetal calf serum, 10% of colony-stimulating factor, 10% of citrate plasma, and CaCl2 1.5 mg/ml). The cultures were incubated for 7 days at 37° C. in 5% CO2. Colonies of at least 50 cells were scored at 40× magnification.
The method is exactly as described above except that the test compounds (volume of 200 μl, 100 nmol per dose) were administered 24 h after sublethal γ-irradiation (6 Gy).

With `CCCCCCCCCCCCCCC(CCCCCCCCCCCCCC)C(=O)N[C@H]1[C@H](O[C@H]2[C@H](OCC(=O)N[C@@H](CC)C(=O)N[C@H](CCC(=O)O)C(N)=O)[C@@H](NC(C)=O)C(O)O[C@@H]2CO)O[C@H](CO)[C@@H](O)[C@@H]1O` (stereo partly drawn) [Compound 24, N-{2-O-[2-deoxy-2-(2-tetradecyl-hexadecanoylamino)-β-D-gluco-pyranosyl-(1→4)-2-acetamido-2,3-dideoxy-α-D-glucopyranosid-3-yl]glycoloyl}-L-α-aminobutanoyl-D-isoglutamine], in series [1], the “+ΔTmax (Sum of ΔTmax)” value amounted to 0.7 °C. The “antibody response to r-hsp90 proteoliposomes” value in series [2] is “weak to non-existent antibody responses; also recorded: virtually no Th2-type response”. Besides, the “cell-mediated response to r-hsp90 proteoliposomes” value in series [3] was “strong Th1-type responses”. Further, the “lag time to reach full NK stimulating activity” value in series [4] (no vs 18 h pre-incubation) was “most pronounced”. Moreover, in series [4], the “dose response of NK cell activity” value is reported as “negative dose response”. Besides, in [5], the “Th1 stimulation (EAE)” value is recorded as “strongest effect on Th1 stimulation”. For the same compound, the “survival of lethally irradiated mice” value in series [6] is “smaller survival benefit”. In the series on Salmonella enteritidis, the “protective effect / survival rate in S. Enteritidis infection” value is given as “good protective effects”, the “Day 6 Intest.: clear/infected/dead” value is 4/1/0, the “Day 6 Liver: clear/infected/dead” value was 3/2/0 and the “Day 6 Lungs: clear/infected/dead” value is given as 4/1/0. Moreover, in the series with Salmonella enteritidis, the “Day 6 Spleen: clear/infected/dead” value is reported as 3/2/0, the “Day 12 Intest.: clear/infected/dead” value is 3/1/1, the “Day 12 Liver: clear/infected/dead” value is reported as 3/1/1 and the “Day 12 Lungs: clear/infected/dead” value is 4/0/1. Besides, the “Day 12 Spleen: clear/infected/dead” value with Salmonella enteritidis is recorded as 3/1/1. Moreover, the “survival, late phase (days 55 and 59), long-term” value in [7] (10 μmol i.p., non-liposomal, control 0%, FIG. 23, listed as substance 24) is 30%. For the same compound, the “survival, early phase (day 43)” value in series [7] (10 μmol i.p., non-liposomal, saline control 82%, FIG. 23) is “survival rate worse than control”. In addition, the “clonal expansion of TER-119+ erythroleukaemia cells in spleen” value in series [7] (day 16, FIG. 24) is “pronounced opposite effect”. The “spleen size (weight)” value in series [7] (day 16, FIG. 25) is reported as “spleen size slightly lower than the control”. In series [8], the “NK cell activity (cell-mediated cytotoxicity of SMCs)” value is listed as “inhibitory effect”.
As for `CCCCCCCCCCCCCCC(CCCCCCCCCCCCCC)C(=O)NCCCC[C@H](NC(=O)CC[C@@H](NC(=O)[C@H](CC)NC(=O)CO[C@H]1[C@H](O)[C@@H](CO)OC(O)[C@@H]1NC(C)=O)C(N)=O)C(=O)O` (stereo partly drawn) [Compound 33, N-[2-O-(2-Acetamido-2,3-dideoxy-α-D-glucopyranosid-3-yl)-glycoloyl]-L-α-aminobutanoyl-D-isoglutaminyl-L-lysine(2-tetradecylhexadecanoyl)], the “+ΔTmax (Sum of ΔTmax)” value in [1] was 0.4 °C. For the same compound, the “antibody response to r-hsp90 proteoliposomes” value in [2] was “strong and comparable to AlOH”. For the same compound, the “cell-mediated response to r-hsp90 proteoliposomes” value in [3] is recorded as “good results”. Also, the “dose response of NK cell activity” value in [4] is “positive dose response”. Further, the “GM-CFC stimulating activity (CSA) in serum” value in series [9] is listed as “no effect”. For the same compound, the “GM-CFC progenitor cells in bone marrow” value in series [10] is given as “strongest performers”. Also, in the series with Salmonella enteritidis, the “protective effect / survival rate in S. Enteritidis infection” value is reported as “good protective effects”, the “Day 6 Intest.: clear/infected/dead” value is recorded as 5/0/0, the “Day 6 Liver: clear/infected/dead” value is recorded as 5/0/0 and the “Day 6 Lungs: clear/infected/dead” value is 5/0/0. For the same compound, in the series on Salmonella enteritidis, the “Day 6 Spleen: clear/infected/dead” value is listed as 2/3/0, the “Day 12 Intest.: clear/infected/dead” value is on record as 2/2/1, the “Day 12 Liver: clear/infected/dead” value was 1/3/1 and the “Day 12 Lungs: clear/infected/dead” value was 2/2/1. The “Day 12 Spleen: clear/infected/dead” value in the series on Salmonella enteritidis was 1/3/1. In addition, in series [8], the “NK cell activity (cell-mediated cytotoxicity of SMCs)” value is “partially 33, had an inhibitory effect”.
